For experiment [1], the system named is HCT-116. The experiment can be described thus: Induction of cellular energetics impairment in human HCT116 cells assessed as cellular ATP level by Cell Titre-Glo assay relative to vehicle-treated control. The class given is functional.
Experiment [2] has as its system HT-29. The experiment can be described thus: Induction of cellular energetics impairment in human HT-29 cells assessed as cellular ATP level by Cell Titre-Glo assay relative to vehicle-treated control. It is filed as functional.
Experiment [3] has as its system HT-29. The experiment can be described thus: Induction of mitochondrial morphology changes in human HT-29 cells assessed as mitochondria with electron dense phenotype and well preserved cristae by microscopic analysis. It is filed as functional, cell-based.
Experiment [4] has as its system HCT-116. The experiment can be described thus: Induction of mitochondrial morphology changes in human HCT116 cells assessed as swelling and damaged mitochondria by microscopic analysis. The class given is functional, cell-based.
Experiment [5] relates to HT-29. The experiment can be described thus: Induction of mitochondrial morphology changes in human HT-29 cells assessed as lipid bodies near mitochondria by microscopic analysis. It is filed as functional, cell-based.
The test system of experiment [6] is HT-29. The experiment can be described thus: Cytotoxicity against human HT-29 cells at 20 uM after 24 to 48 hrs by MTT assay. It is filed as functional, cell-based. (Tetrazolium dyes change colour on reduction, which living cells bring about.)
Experiment [7] relates to MRC5. The experiment can be described thus: Induction of HO-1 expression in human MRC5 cells […] after 24 hrs by immunoblotting analysis relative to control. The class given is functional. A general note: In western blotting, separated proteins are transferred to a membrane and probed.
Experiment [8] relates to MRC5. The experiment can be described thus: Induction of ATPIF-1 expression in human MRC5 cells […] after 24 hrs by immunoblotting analysis relative to control. The class given is functional.
For experiment [9], the system named is MRC5. The experiment can be described thus: Cytotoxicity against human MRC5 cells by MTT assay in presence of H2O2. It is filed as functional, cell-based.
The subject of experiment [10] is MRC5. The experiment can be described thus: Induction of apoptosis in human MRC5 cells assessed as downregulation of Bcl2 protein expression in presence of H2O2 by Western blotting method. The class given is functional, cell-based.
For experiment [11], the system named is MRC5. The experiment can be described thus: Induction of apoptosis in human MRC5 cells assessed as downregulation of Bcl-XL protein expression in presence of H2O2 by Western blotting method. The class given is functional, cell-based.
Experiment [12] deals with HT-29. The experiment can be described thus: Induction of ATPIF-1 expression in human HT-29 cells at 20 uM after 48 hrs relative to vehicle-treated control. The class given is functional, cell-based.
Experiment [13] deals with HCT-116. The experiment can be described thus: Cytotoxicity against human HCT116 cells at 20 uM after 24 to 48 hrs by MTT assay. It is filed as functional, cell-based.
Experiment [14] has as its system HCT-116. The experiment can be described thus: Cytotoxicity against human HCT116 cells after 24 to 48 hrs by MTT assay. It is filed as functional, cell-based.
The subject of experiment [15] is HCT-116. The experiment can be described thus: Cytotoxicity against human HCT116 cells at 10 to 50 uM by MTT assay. It is filed as functional, cell-based. The conditions noted are these: TDE = time-dependent effect.
The test system of experiment [16] is HCT-116. The experiment can be described thus: Induction of ATPIF-1 expression in human HCT116 cells at 20 uM after 48 hrs relative to vehicle-treated control. It is filed as functional, cell-based.
For experiment [17], the system named is HCT-116. The experiment can be described thus: Cytotoxicity against human HCT116 cells at 30 uM after 24 hrs by MTT assay in presence of HO-1 inhibitor ZnPP. The class given is functional, cell-based.
The subject of experiment [18] is HCT-116. The experiment can be described thus: Cytotoxicity against human HCT116 cells at 30 uM after 24 hrs by MTT assay in presence of HO-1 inhibitor siRNA. The class given is functional, cell-based.
For experiment [19], the system named is HT-29. The experiment can be described thus: Cytotoxicity against human HT-29 cells at 30 uM after 24 hrs by MTT assay in presence of HO-1 inducer hemin. The class given is functional, cell-based.
Experiment [20] relates to HCT-116. The experiment can be described thus: Induction of apoptosis in human HCT116 cells assessed as PARP cleavage at 20 uM after 48 hrs by Western blotting method. The class given is functional, cell-based.
Experiment [21] deals with HT-29. The experiment can be described thus: Cytotoxicity against human HT-29 cells at 10 to 50 uM after 24 to 48 hrs by MTT assay. The class given is functional, cell-based.
The subject of experiment [22] is MRC5. The experiment can be described thus: Cytotoxicity against human MRC5 cells at 30 uM by MTT assay in presence of H2O2. It is filed as functional, cell-based.
Experiment [23] has as its system HCT-116. The experiment can be described thus: Cytotoxicity against human HCT116 cells at 10 to 50 uM after 24 to 48 hrs by MTT assay. It is filed as functional, cell-based.

Structures are written as SMILES. Active and inactive are the calls of the source. The rule behind the calls is not given here.

For the molecule `C=C[C@@H](c1ccc(O)c(OC)c1)c1c(OC)cc(O)c2c(=O)cc(-c3ccccc3)oc12`, the Activity is 37.3% with HCT-116 [1], 37.8% in the experiment with HT-29 [2], “Dose-dependent effect” in the experiment on HCT-116 [14] and “tde” with HCT-116 [15]. Further, the result in the experiment with HT-29 [3], in the experiment on HCT-116 [4], with HT-29 [5], with HT-29 [6], in the experiment on MRC5 [9] and with MRC5 [10] was Active. For the same molecule, the outcome in the experiment on MRC5 [11], in the experiment with HT-29 [12], in the experiment with HCT-116 [13], in the experiment on HCT-116 [16], in the experiment on HT-29 [19] and with HCT-116 [20] was Active. Moreover, the Ratio with MRC5 [7] was 3.4; with MRC5 [8], 1.8. The result in the experiment on HCT-116 [17] and with HCT-116 [18] was inactive.
Turning to `C=C[C@@H](c1ccc(OC)c(OC)c1)c1c(O)cc(O)c2c(=O)cc(-c3ccccc3)oc12`, the Ratio is on record as 1.6 in the experiment on MRC5 [7] and 1.3 with MRC5 [8].
As for `COc1cc(/C=C/COc2cc(OCc3ccccc3)c3c(=O)cc(-c4ccccc4)oc3c2)ccc1OCc1ccccc1`, the Activity amounted to 79.3% with HCT-116 [1] and 99.2% with HT-29 [2]. The result with HT-29 [21], in the experiment on MRC5 [22], in the experiment on MRC5 [9] and with HCT-116 [23] was inactive. Moreover, the Ratio is recorded as 3 with MRC5 [7] and 1 in the experiment with MRC5 [8].
For the molecule `C=C[C@@H](c1ccc(O)c(OC)c1)c1c(O)cc(O)c2c(=O)cc(-c3ccccc3)oc12`, the values for the Ratio with MRC5 [7] and with MRC5 [8] were 1.7 and 2.3, respectively. Moreover, in the experiment with MRC5 [22], the outcome was Active.
Regarding `C=C[C@@H](c1ccccc1)c1c(O)cc(O)c2c(=O)cc(-c3ccccc3)oc12`, the figures for the Ratio in the experiment on MRC5 [7] and with MRC5 [8] were 2.4 and 1.5, respectively.
The matching figures for `C=C[C@@H](c1ccc(OC)c(OC)c1)c1c(OC)cc(O)c2c(=O)cc(-c3ccccc3)oc12`: 2.2 and 2.
The matching figures for `C=C[C@@H](c1ccc(OC)c(OC)c1)c1c(OC)cc(OC)c2c(=O)cc(-c3ccccc3)oc12`: 1.5 and 1.6.
In the same order, the values of `C=C[C@@H](c1ccc(OCc2ccccc2)c(OC)c1)c1c(O)cc(OCc2ccccc2)c2c(=O)cc(-c3ccccc3)oc12` are 1.1 and 1.5.
In the case of `C=C[C@@H](c1ccc(OC)cc1)c1c(O)cc(O)c2c(=O)cc(-c3ccccc3)oc12`, the Ratio in the experiment with MRC5 [7] is 1.1; in the experiment with MRC5 [8], 1.8. In addition, the outcome with MRC5 [9] was inactive.
Take `C=C[C@@H](c1ccc(O)c(OC)c1)c1c(O)cc(OC)c2c(=O)cc(-c3ccccc3)oc12`: the Ratio was found to be 1.8 in the experiment with MRC5 [7] and 1.6 in the experiment with MRC5 [8].
In the case of `C=C[C@@H](c1ccc(OCc2ccccc2)c(OC)c1)c1c(OCc2ccccc2)cc(OCc2ccccc2)c2c(=O)cc(-c3ccccc3)oc12`, the Ratio is listed as 0.6 with MRC5 [7] and 2 with MRC5 [8].
The matching figures for `C=C[C@@H](c1ccc(O)c(OC)c1)c1c(O)cc(O)c2c(=O)cc(-c3ccc(OC)cc3)oc12`: 2.3 and 1.4.
Regarding `C=C[C@@H](c1ccc(OC)c(OC)c1)c1c(O)cc(OC)c2c(=O)cc(-c3ccccc3)oc12`, the figures for the Ratio in the experiment on MRC5 [7] and with MRC5 [8] were 1.1 and 1.9, respectively.
With `C=C[C@@H](c1ccc(O)c(OC)c1)c1c(OC)cc(OC)c2c(=O)cc(-c3ccccc3)oc12`, the Ratio in the experiment with MRC5 [7] turned out to be 2.2; in the experiment on MRC5 [8], 2.3.

Values taken from ChEMBL document CHEMBL3352240, “Upregulation of both heme oxygenase-1 and ATPase inhibitory factor 1 renders tumoricidal activity by synthetic flavonoids via depleting cellular ATP” (2014).
